Measurements as given in ChEMBL document CHEMBL4371065, “Design and synthesis of biaryloxazolidinone derivatives containing a rhodanine or thiohydantoin moiety as novel antibacterial agents against Gram-positive bacteria” (Bioorg Med Chem Lett, 2019).
≈ marks a conversion by molar mass, not a printed value.

Legend:
Staphylococcus aureus [1] = assay: Antibacterial activity against Staphylococcus aureus ATCC 29213 by broth liquid microdilution method; format: functional
Staphylococcus aureus [2] = assay: Antibacterial activity against methicillin-resistant Staphylococcus aureus by broth liquid microdilution method; format: functional
Staphylococcus aureus [3] = assay: Antibacterial activity against methicillin-sensitive Staphylococcus aureus by broth liquid microdilution method; format: functional
Enterococcus faecalis [4] = assay: Antibacterial activity against linezolid-resistant Enterococcus faecalis by broth liquid microdilution method; format: functional
Enterococcus faecium [5] = assay: Antibacterial activity against vancomycin-resistant Enterococcus faecium by broth liquid microdilution method; format: functional
Staphylococcus aureus [6] = assay: Antibacterial activity against clinical isolates of methicillin-sensitive Staphylococcus aureus by broth liquid microdilution method; format: functional
Enterococcus faecalis [7] = assay: Antibacterial activity against clinical isolates of linezolid-resistant Enterococcus faecalis by broth liquid microdilution method; format: functional
Enterococcus faecium [8] = assay: Antibacterial activity against clinical isolates of vancomycin-resistant Enterococcus faecium by broth liquid microdilution method; format: functional
HepG2 = assay: Cytotoxicity against human HepG2 cells after 48 hrs by MTT assay; format: cell-based; conditions: HepG2, 48 h
MAO-A = biological target: T1, MAO-A (Homo sapiens, UniProt P21397); assay: Inhibition of recombinant human full length N-terminal FLAG-tagged MAO-A expressed in sf9 cells at 30 uM preincubated for 15 mins followed by substrate addition and measured after 60 mins by luminescence assay relative to control
T1 sequence (P21397 whole entry): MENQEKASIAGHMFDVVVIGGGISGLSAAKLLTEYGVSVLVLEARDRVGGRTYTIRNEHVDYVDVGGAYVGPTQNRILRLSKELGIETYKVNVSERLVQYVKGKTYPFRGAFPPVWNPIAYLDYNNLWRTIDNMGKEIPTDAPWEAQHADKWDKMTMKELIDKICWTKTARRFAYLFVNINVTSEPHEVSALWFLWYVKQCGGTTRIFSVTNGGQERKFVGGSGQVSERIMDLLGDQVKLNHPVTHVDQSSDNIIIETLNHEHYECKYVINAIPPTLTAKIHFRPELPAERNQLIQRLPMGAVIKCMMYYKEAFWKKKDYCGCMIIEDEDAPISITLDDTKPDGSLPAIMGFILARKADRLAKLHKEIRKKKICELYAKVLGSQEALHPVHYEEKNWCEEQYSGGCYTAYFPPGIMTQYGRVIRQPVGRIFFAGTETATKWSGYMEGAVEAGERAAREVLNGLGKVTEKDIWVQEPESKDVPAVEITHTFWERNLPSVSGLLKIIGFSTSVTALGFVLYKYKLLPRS

Row | Structure (SMILES) | MIC (Staphylococcus aureus [1]) [µg/mL] | MIC (Staphylococcus aureus [2]) [µg/mL] | MIC (Staphylococcus aureus [3]) [µg/mL] | MIC (Enterococcus faecalis [4]) [µg/mL] | MIC (Enterococcus faecium [5]) [µg/mL] | MIC (Staphylococcus aureus [6]) [µg/mL] | MIC (Enterococcus faecalis [7]) [µg/mL] | MIC (Enterococcus faecium [8]) [µg/mL] | IC50 (HepG2) [µM] | inhibition at 1 h, 30 µM (MAO-A) [%]
1 | CCN(CC)CCCN1C(=O)/C(=C/c2ccc(-c3ccc(N4C[C@H](CNC(C)=O)OC4=O)cc3F)cc2)SC1=S | 0.5 (≈ 0.855 µM) | 0.5 (≈ 0.855 µM) | 0.5 (≈ 0.855 µM) | 0.5 (≈ 0.855 µM) | 0.5 (≈ 0.855 µM) |  |  |  |  | 
2 | CCN1C(=O)/C(=C/c2ccc(-c3ccc(N4C[C@H](CNC(C)=O)OC4=O)cc3F)cc2)SC1=S | 0.25 (≈ 0.5 µM) | 0.25 (≈ 0.5 µM) | 0.25 (≈ 0.5 µM) | 0.5 (≈ 1 µM) | 0.5 (≈ 1 µM) |  |  |  |  | 
3 | CCN1C(=O)/C(=C/c2ccc(-c3ccc(N4C[C@H](CNC(C)=O)OC4=O)cc3F)cc2)NC1=S | 0.25 (≈ 0.518 µM) | 0.25 (≈ 0.518 µM) | 0.25 (≈ 0.518 µM) | 0.25 (≈ 0.518 µM) | 0.25 (≈ 0.518 µM) |  |  |  |  | 
4 | CCCN1C(=O)/C(=C/c2ccc(-c3ccc(N4C[C@H](CNC(C)=O)OC4=O)cc3F)cc2)SC1=S | 2 (≈ 3.89 µM) | 2 (≈ 3.89 µM) | 2 (≈ 3.89 µM) | 2 (≈ 3.89 µM) | 2 (≈ 3.89 µM) |  |  |  |  | 
5 | CCOC(=O)CN1C(=O)/C(=C/c2ccc(-c3ccc(N4C[C@H](CNC(C)=O)OC4=O)cc3F)cc2)NC1=S | 1 (≈ 1.85 µM) | 1 (≈ 1.85 µM) | 1 (≈ 1.85 µM) | 1 (≈ 1.85 µM) | 1 (≈ 1.85 µM) |  |  |  |  | 
6 | CC(=O)NC[C@H]1CN(c2ccc(-c3ccc(/C=C4\NC(=S)N(C(C)C)C4=O)cc3)c(F)c2)C(=O)O1 | 1 (≈ 2.01 µM) | 1 (≈ 2.01 µM) | 1 (≈ 2.01 µM) | 0.5 (≈ 1.01 µM) | 0.5 (≈ 1.01 µM) |  |  |  |  | 
7 | CC(=O)NC[C@H]1CN(c2ccc(-c3ccc(/C=C4\NC(=S)NC4=O)cc3)c(F)c2)C(=O)O1 | 0.125 (≈ 0.275 µM) | 0.125 (≈ 0.275 µM) | 0.125 (≈ 0.275 µM) | 0.125 (≈ 0.275 µM) | 0.125 (≈ 0.275 µM) | 0.5 to 1 (≈ 1.1 to 2.2 µM) | 0.25 to 0.5 (≈ 0.55 to 1.1 µM) | 0.25 to 0.5 (≈ 0.55 to 1.1 µM) | 61.7 | 99
8 | CC(=O)NC[C@H]1CN(c2ccc(-c3ccc(/C=C4\NC(=S)N(C)C4=O)cc3)c(F)c2)C(=O)O1 | 0.5 (≈ 1.07 µM) | 0.5 (≈ 1.07 µM) | 0.5 (≈ 1.07 µM) | 0.5 (≈ 1.07 µM) | 0.5 (≈ 1.07 µM) |  |  |  |  | 
9 | CCCN1C(=O)/C(=C/c2ccc(-c3ccc(N4C[C@H](CNC(C)=O)OC4=O)cc3F)cc2)NC1=S | 2 (≈ 4.03 µM) | 2 (≈ 4.03 µM) | 2 (≈ 4.03 µM) | 2 (≈ 4.03 µM) | 2 (≈ 4.03 µM) |  |  |  |  | 
10 | CC(=O)NC[C@H]1CN(c2ccc(N3CCOCC3)c(F)c2)C(=O)O1 [LINEZOLID] | 1 (≈ 2.96 µM) | 1 (≈ 2.96 µM) | 1 (≈ 2.96 µM) | > 16 | 2 (≈ 5.93 µM) | 1 to 4 (≈ 2.96 to 11.9 µM) | > 16 | 1 to 4 (≈ 2.96 to 11.9 µM) | > 25 | 76
11 | CC(=O)NC[C@H]1CN(c2ccc(-c3ccc(CNCc4cnn[nH]4)cc3)c(F)c2)C(=O)O1 [RADEZOLID] | 0.5 (≈ 1.14 µM) | 0.5 (≈ 1.14 µM) | 0.5 (≈ 1.14 µM) | 0.5 (≈ 1.14 µM) | 0.5 (≈ 1.14 µM) |  |  |  |  | 
